Source: patent publication US20250090820A1, “LOCALIZED DRUG DELIVERY TO PREVENT VASCULAR RESTENOSIS” (Ohio State Innovation Foundation, priority 2022, published 2025)

Assay: Release of model compounds from sintered electrospun PCL fiber capsules
Type: physicochemical
Settings: for ranking of release of model compounds: controlled by molecular weight and available porosity
Text: Electrospinning has been used widely for drug delivery due to its versatility and ease of modification of fiber properties. However, total drug loading and release is typically limited by the inherent surface area. Instead a sintering of electrospun fiber to create injectable capsules favoring controlled delivery of low molecular weight compounds was used. As electrospun, the fully resorbable, biocompatible polymer polycaprolactone (PCL) retains its morphology out to 1,042 days of in vitro exposure, illustrating its potential for extended performance. Sintering decreases the pore size by 10- and 28-fold following 56 and 57° C. exposures, respectively. After the 58 and 59° C. exposures, these PCL capsules lose all apparent surface porosity but entrapped pores are observed in the 58° C. cross-section. […] The model drug adsorption on the available surface area (57 versus 56° C.) and entrapped porosity (59 versus 58° C.) could have also attributed to the observed ranking of release rates.
FIGS. 5A-5H show images of microstructural transformations at different temperatures (56° C. to 59° C.). […] Little difference between 56° C. and 57° C. sintering and unsintered fiber˜100% release. […] At 58° C. and 59° C. release is flipped: faster release at lower porosity. RhB is a relatively small molecule. Intermittent adsorption to surface of remaining porosity greatly slows release. […] No condition achieves˜100% release out to 12 days. […] At 58° C. and 59° C. release are still flipped but not as dramatic: faster release at lower porosity. Intermittent adsorption to surface of remaining porosity continues to slow release but increased molecular weight decreases net differences in diffusion. […] Much larger molecule needs fully open porosity for any release to occur. […] Diffusion through dense PCL is zero. […] FIGS. 11A-11B show relatively little porosity remains. This makes a substantial difference in diffusion and surface controlled release. Sequestration within the wall. FIGS. 12A-12D and 13A-13F show controlled salt confinement for controlled porosity using HEPES salt. […] Extraction was performed using deionized water at 37° C. for 24 hours plus gentle shaking. In most cases extraction was nearly complete. It is likely that Na^+ was retained and has measurable effects on mechanical properties.

| ranking of release of model compounds | percent RB release of 200 μg (any sintering condition, out to 12 days) [%] | RB release profile (capsules sintered at 58° C. and 59° C.) | percent RhB release of 200 μg (56° C. and 57° C. sintering and unsintered fiber) [%] | RhB release profile (capsules sintered at 58° C.) | Compound | Diffusion through dense PCL (dense PCL wall) | BSA-FITC release profile (release of 200 μg versus time, needs fully open porosity) |
| --- | --- | --- | --- | --- | --- | --- | --- |
| RhB>RB>>BSA-FITC | < 100 | linear release out to 12 days | – | – | O=C1OC2(c3cc(I)c(O)c(I)c3Oc3c2cc(I)c(O)c3I)c2c(Cl)c(Cl)c(Cl)c(Cl)c21 [RB, Rose Bengal] | – | – |
| RhB>RB>>BSA-FITC | – | – | ~100 | linear release out to 12 days | CCN(CC)c1ccc2c(-c3ccccc3C(=O)O)c3ccc(=[N+](CC)CC)cc-3oc2c1.[Cl-] [RhB, Rhodamine B] | – | – |

| Compound | ranking of release of model compounds | percent RB release of 200 μg (any sintering condition, out to 12 days) [%] | RB release profile (capsules sintered at 58° C. and 59° C.) | percent RhB release of 200 μg (56° C. and 57° C. sintering and unsintered fiber) [%] | RhB release profile (capsules sintered at 58° C.) | Diffusion through dense PCL (dense PCL wall) | BSA-FITC release profile (release of 200 μg versus time, needs fully open porosity) |
| --- | --- | --- | --- | --- | --- | --- | --- |
| albumin-fluorescein isothiocyanate conjugate from bovine serum [BSA-FITC] | RhB>RB>>BSA-FITC | – | – | – | – | zero | Release plateaus quickly |
